Results on 28 compounds are retold here after patent US20230117034A1, “PYRAZOLOTRIAZINES” (Bayer Aktiengesellschaft, priority 2019, published 2023).

One assay concerns the target T1, CDK2/CycE (Homo sapiens, UniProt P24941).
T1 construct: purchased ProQinase GmbH (Freiburg, Germany); host or cells: insect cells (Sf9)
As to the kind of experiment: CDK2/CycE kinase assay (TR-FRET, 2 mM ATP). As to conditions: 2 mM ATP (high ATP); median; read-out: CDK2/CyclinE, 2 mM ATP (high ATP), IC50 (median). The class given is biochemical. The procedure, abridged: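 Biotin-peptide phosphorylation (0.75 µM substrate, 2 mM ATP final, 25 min, 22 °C) by Sf9-expressed GST-CDK2/GST-CycE, after a 15-min compound pre-binding step. Inhibition scaled between enzyme-free (100%) and uninhibited (0%) wells.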
(Time-resolved FRET reads energy transfer from a long-lived donor to a nearby acceptor.)

For assay [1], the system named is BRCA1 mRNA expression in MDA-MB-231 cells. In words: qRT-PCR assay: BRCA1 mRNA expression in MDA-MB-231. The class given is cell-based, human. The conditions noted are these: Homo sapiens, MDA-MB-231, Inhibition of BRCA1 mRNA expression in MDA-MB-231 cells; median; read-out: RTqPCR-MDA-MB-231, IC50, BRCA1 (median). In short, it runs like this:
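Seed 200,000 cells/well; 24 h later add compound, continuous exposure 24 h; extract RNA, 600 ng to cDNA; RT-qPCR, normalised to GAPDH.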
On the technique in general: Quantitative PCR measures a nucleic acid by following its amplification.

The structures appear in SMILES notation.

`Cc1cnn2c(NCc3nc4c(F)c(F)ccc4[nH]3)nc(N3CCN(C)CC3)nc12` [Example 394, N-[(4,5-difluoro-1H-benzimidazol-2-yl)methyl]-8-methyl-2-(4-methylpiperazin-1-yl)pyrazolo[1,5-a][1,3,5]triazin-4-amine]: the figures for the IC50 (at CDK2/CycE; in assay [1]) were > 20 µM and 0.0114 µM, respectively.

With `CC(C)COc1nc(NCc2nc3ccccc3[nH]2)n2ncc(Br)c2n1` [Example 409, N-[(1H-benzimidazol-2-yl)methyl]-8-bromo-2-(2-methylpropoxy)pyrazolo[1,5-a][1,3,5]triazin-4-amine], the IC50 at CDK2/CycE was found to be 12.8 µM.

As to `Clc1cc2nc(CNc3nc(N4CCOCC4)nc4c(-c5ccnnc5)cnn34)[nH]c2cc1Cl.O=C(O)C(F)(F)F` [Example 440, trifluoroacetic acid N-[(5,6-dichloro-1H-benzimidazol-2-yl)methyl]-2-(morpholin-4-yl)-8-(pyridazin-4-yl)pyrazolo[1,5-a][1,3,5]triazin-4-amine], the values for the IC50 (on CDK2/CycE; in assay [1]) were > 20 µM and 0.0027 µM, respectively.

In the case of `CCNc1nc(NCc2ncc(-c3ccccc3)[nH]2)n2ncc(C(C)C)c2n1` [Example 34, N^2-ethyl-N^4-[(5-phenyl-1H-imidazol-2-yl)methyl]-8-(propan-2-yl)pyrazolo[1,5-a][1,3,5]triazine-2,4-diamine], the IC50 on CDK2/CycE is 6.18 µM; in assay [1], 0.01 µM.

For the compound `CC(C)c1cnn2c(NCc3ncc(-c4ccccc4)[nH]3)nc(N(C)CC(C)(C)O)nc12` [Example 35, 2-methyl-1-{methyl[4-{[(5-phenyl-1H-imidazol-2-yl)methyl]amino}-8-(propan-2-yl)pyrazolo[1,5-a][1,3,5]triazin-2-yl]amino}propan-2-ol], the IC50 on CDK2/CycE stood at 1.7 µM; in assay [1], 0.039 µM.

`Cc1cnn2c(NCc3nc4ccccc4[nH]3)nc(N3CCN(C)CC3)nc12` [Example 396, N-[(1H-benzimidazol-2-yl)methyl]-8-methyl-2-(4-methylpiperazin-1-yl)pyrazolo[1,5-a][1,3,5]triazin-4-amine]: the IC50 at CDK2/CycE was 13.9 µM.

Turning to `CCNc1nc(NCc2nnc(-c3ccccc3)[nH]2)n2ncc(C(C)C)c2n1` [Example 38, N^2-ethyl-N^4-[(5-phenyl-4H-1,2,4-triazol-3-yl)methyl]-8-(propan-2-yl)pyrazolo[1,5-a][1,3,5]triazine-2,4-diamine], the IC50 at CDK2/CycE stood at 8.3 µM.

With `Brc1cnn2c(NCc3nc4ccccc4[nH]3)nc(OCCN3CCCC3)nc12` [Example 404, N-[(1H-benzimidazol-2-yl)methyl]-8-bromo-2-[2-(pyrrolidin-1-yl)ethoxy]pyrazolo[1,5-a][1,3,5]triazin-4-amine], at CDK2/CycE, the IC50 was > 20 µM.

For the compound `COC(C)(C)COc1nc(NCc2nc3ccccc3[nH]2)n2ncc(Br)c2n1` [Example 403, N-[(1H-benzimidazol-2-yl)methyl]-8-bromo-2-(2-methoxy-2-methylpropoxy)pyrazolo[1,5-a][1,3,5]triazin-4-amine], the IC50 on CDK2/CycE was > 20 µM.

Turning to `CN1CCN(c2nc(NCc3nc4cc(Cl)c(Cl)cc4[nH]3)n3ncc(-c4cnn(C)c4)c3n2)CC1` [Example 420, N-[(5,6-dichloro-1H-benzimidazol-2-yl)methyl]-2-(4-methylpiperazin-1-yl)-8-(1-methyl-1H-pyrazol-4-yl)pyrazolo[1,5-a][1,3,5]triazin-4-amine], on CDK2/CycE, the IC50 is > 20 µM.

As for `FC(F)n1cc(-c2cnn3c(NCc4nc5cc(Cl)c(Cl)cc5[nH]4)nc(N4CCOCC4)nc23)cn1` [Example 423, N-[(5,6-dichloro-1H-benzimidazol-2-yl)methyl]-8-[1-(difluoromethyl)-1H-pyrazol-4-yl]-2-(morpholin-4-yl)pyrazolo[1,5-a][1,3,5]triazin-4-amine], the IC50 is > 20 µM on CDK2/CycE and 0.0062 µM in assay [1].

On to `Cc1cnn2c(NCc3nc4ccccc4[nH]3)nc(N(C)CC(C)(C)O)nc12` [Example 397, 1-[(4-{[(1H-benzimidazol-2-yl)methyl]amino}-8-methylpyrazolo[1,5-a][1,3,5]triazin-2-yl)(methyl)amino]-2-methylpropan-2-ol], for which the IC50 on CDK2/CycE is 17.2 µM.

In the case of `O=C(O)C(F)(F)F.c1ccc2[nH]c(CNc3nc(N4CCOCC4)nc4c(-c5ccnnc5)cnn34)nc2c1` [Example 438, trifluoroacetic acid N-[(1H-benzimidazol-2-yl)methyl]-2-(morpholin-4-yl)-8-(pyridazin-4-yl)pyrazolo[1,5-a][1,3,5]triazin-4-amine], on CDK2/CycE, the IC50 is > 20 µM.

For `COc1cccc2[nH]c(CNc3nc(N4CCOCC4)nc4c(-c5nccs5)cnn34)nc12` [Example 414, N-[(4-methoxy-1H-benzimidazol-2-yl)methyl]-2-(morpholin-4-yl)-8-(1,3-thiazol-2-yl)pyrazolo [1,5-a][1,3,5]triazin-4-amine], the IC50 at CDK2/CycE was > 20 µM.

Regarding `COc1cccc2nc(CNc3nc(N4CCN(C)CC4)nc4c(-c5nccs5)cnn34)[nH]c12` [Example 416, N-[(7-methoxy-1H-benzimidazol-2-yl)methyl]-2-(4-methylpiperazin-1-yl)-8-(1,3-thiazol-2-yl)pyrazolo[1,5-a][1,3,5]triazin-4-amine], the IC50 on CDK2/CycE was > 20 µM.

As to `CN(C)CCOc1nc(NCc2nc3ccccc3[nH]2)n2ncc(Br)c2n1` [Example 399, N-[(1H-benzimidazol-2-yl)methyl]-8-bromo-2-[2-(dimethylamino)ethoxy]pyrazolo[1,5-a][1,3,5]triazin-4-amine], on CDK2/CycE, the IC50 is > 20 µM.

Regarding `CN1CCN(c2nc(NCc3nc4c(F)c(F)ccc4[nH]3)n3ncc(-c4nccs4)c3n2)CC1` [Example 415, N-[(4,5-difluoro-1H-benzimidazol-2-yl)methyl]-2-(4-methylpiperazin-1-yl)-8-(1,3-thiazol-2-yl)pyrazolo[1,5-a][1,3,5]triazin-4-amine], the IC50 on CDK2/CycE was > 20 µM.

Regarding `Brc1cnn2c(NCc3nc4ccccc4[nH]3)nc(OC3CCOCC3)nc12` [Example 405, N-[(1H-benzimidazol-2-yl)methyl]-8-bromo-2-[(oxan-4-yl)oxy]pyrazolo[1,5-a][1,3,5]triazin-4-amine], the IC50 on CDK2/CycE was > 20 µM.

For `COc1ccccc1-c1nnc(CNc2nc(N3CCN(C)CC3)nc3c(C4CC4(F)F)cnn23)[nH]1` (centres unmarked) [Example 430, 8-(2,2-difluorocyclopropyl)-N-{[5-(2-methoxyphenyl)-4H-1,2,4-triazol-3-yl]methyl}-2-(4-methylpiperazin-1-yl)pyrazolo[1,5-a][1,3,5]triazin-4-amine], the IC50 is > 20 µM at CDK2/CycE and 0.01 µM in assay [1].

For the compound `Brc1cnn2c(NCc3nc4ccccc4[nH]3)nc(OC3CCCCC3)nc12` [Example 406, N-[(1H-benzimidazol-2-yl)methyl]-8-bromo-2-(cyclohexyloxy)pyrazolo[1,5-a][1,3,5]triazin-4-amine], the IC50 on CDK2/CycE amounted to 15 µM.

Regarding `CC(C)c1cnn2c(NCc3ncc(-c4ccccc4)[nH]3)nc(N3CCCCC3)nc12` [Example 36, N-[(5-phenyl-1H-imidazol-2-yl)methyl]-2-(piperidin-1-yl)-8-(propan-2-yl)pyrazolo[1,5-a][1,3,5]triazin-4-amine], the IC50 at CDK2/CycE is > 20 µM; in assay [1] it was 0.128 µM.

On to `NCCOCCOCCNc1nc(NCc2nc3ccccc3[nH]2)n2ncc(Br)c2n1` [Example 412, N2-{2-[2-(2-aminoethoxy)ethoxy]ethyl}-N4-[(1H-benzimidazol-2-yl)methyl]-8-bromopyrazolo[1,5-a][1,3,5]triazine-2,4-diamine], for which the IC50 at CDK2/CycE was > 20 µM.

For the compound `Cc1cnn2c(NCc3nc4ccccc4[nH]3)nc(N3CC4CCC(C3)N4)nc12` [Example 401, N-[(1H-benzimidazol-2-yl)methyl]-2-(3,8-diazabicyclo[3.2.1]octan-3-yl)-8-methylpyrazolo[1,5-a][1,3,5]triazin-4-amine], the IC50 on CDK2/CycE is > 20 µM.

Take `Clc1cc2nc(CNc3nc(N4CCOCC4)nc4c(-c5cscn5)cnn34)[nH]c2cc1Cl` [Example 424, N-[(5,6-dichloro-1H-benzimidazol-2-yl)methyl]-2-(morpholin-4-yl)-8-(1,3-thiazol-4-yl)pyrazolo [1,5-a][1,3,5]triazin-4-amine]: the IC50 at CDK2/CycE is > 20 µM.

Regarding `Cc1cnn2c(NCc3nc4ccccc4[nH]3)nc(N3CCOCC3)nc12` [Example 393, N-[(1H-benzimidazol-2-yl)methyl]-8-methyl-2-(morpholin-4-yl)pyrazolo[1,5-a][1,3,5]triazin-4-amine], the IC50 at CDK2/CycE worked out at 9.94 µM.

Take `Brc1cnn2c(NCc3nc4ccccc4[nH]3)nc(OCC3CC3)nc12` [Example 408, N-[(1H-benzimidazol-2-yl)methyl]-8-bromo-2-(cyclopropylmethoxy)pyrazolo[1,5-a][1,3,5]triazin-4-amine]: the IC50 on CDK2/CycE was > 19.7 µM.

Consider `COc1cccc2nc(CNc3nc(N4CCOCC4)nc4c(-c5ccnnc5)cnn34)[nH]c12.O=C(O)C(F)(F)F` [Example 439, trifluoroacetic acid N-[(7-methoxy-1H-benzimidazol-2-yl)methyl]-2-(morpholin-4-yl)-8-(pyridazin-4-yl)pyrazolo[1,5-a][1,3,5]triazin-4-amine], for which, at CDK2/CycE, the IC50 is > 20 µM.

Regarding `CC(C)c1cnn2c(NCc3nnc(-c4ccccc4)[nH]3)nc(N3CCN(C)CC3)nc12` [Example 37, 2-(4-methylpiperazin-1-yl)-N-[(5-phenyl-4H-1,2,4-triazol-3-yl)methyl]-8-(propan-2-yl)pyrazolo[1,5-a][1,3,5]triazin-4-amine], on CDK2/CycE, the IC50 is > 15.3 µM.
